Patent US20180030500A1, “ENRICHMENT AND SELECTIVE CULTURE OF MYCOBACTERIA” (priority 2015, published 2018)
Where two headings read alike, the source gives them in different places.

Experiments:
Enterobacteria = conditions: 7 strains, 7 days
[1] = tested on: Burkholderia pyrrocinia (LMG 21824); assay: Sensitivity to C-390 in medium W; format: cell-based; parameters: key: NG: no growth; Tr: traces
Protocol: (§1) An evaluation of the sensitivity to C-390 of various microorganisms capable of infecting the airways was carried out. This evaluation was carried out using medium W of example 4, containing a variable concentration of C-390. Table 10 below collates the observations collected with regard to the intensity of growth of the strains tested as a function of the C-390 concentration of the medium. The abbreviations NG (“no growth”) and Tr (“traces”) signify that no growth was observed or only a few not very significant traces.

[2] = tested on: Burkholderia ambifaria (LMG 19467); assay: Sensitivity to C-390 in medium W; format: cell-based; parameters: key: NG: no growth; Tr: traces
Protocol: as §1

[3] = tested on: Aspergillus fumigatus (Anon); assay: Sensitivity to C-390 in medium W; format: cell-based; parameters: key: NG: no growth; Tr: traces
Protocol: as §1

[4] = tested on: Burkholderia multivorans (LMG 18824); assay: Sensitivity to C-390 in medium W; format: cell-based; parameters: key: NG: no growth; Tr: traces
Protocol: as §1

[5] = tested on: Aspergillus terreus (Anon); assay: Sensitivity to C-390 in medium W; format: cell-based; parameters: key: NG: no growth; Tr: traces
Protocol: as §1

[6] = tested on: Burkholderia vietnamiensis (744978N); assay: Sensitivity to C-390 in medium W; format: cell-based; parameters: key: NG: no growth; Tr: traces
Protocol: as §1

[7] = tested on: Geosmithia argillacea (Anon); assay: Sensitivity to C-390 in medium W; format: cell-based; parameters: key: NG: no growth; Tr: traces
Protocol: as §1

[8] = tested on: Burkholderia stabilis (LMG18870); assay: Sensitivity to C-390 in medium W; format: cell-based; parameters: key: NG: no growth; Tr: traces
Protocol: as §1

Fusarium oxysporum (ENV) = assay: Sensitivity to C-390 in medium W; format: cell-based; parameters: key: NG: no growth; Tr: traces
Protocol: as §1

Pseudomonas aeruginosa = conditions: 50 strains, 7 days
[9] = selective agent 32 mg/l in medium L
[10] = selective agent 64 mg/l in medium L
[11] = selective agent 128 mg/l in medium L

CCN(CC)c1ccc(C2(Cl)c3ccccc3N(c3ccccc3)c3ccccc32)cc1 [Medium C-390, 9-chloro-9-(4′-diethylamino)phenyl-9,10-dihydro-10-phenylacridine]
(92%): Percentage of strains having shown growth (Pseudomonas aeruginosa; [9])
0: Number of strains having shown growth (Enterobacteria; [9]) | Number of strains having shown growth (Enterobacteria; [10]) | Number of strains having shown growth (Enterobacteria; [11])
45: Number of strains having shown growth (Pseudomonas aeruginosa; [10])
(90%): Percentage of strains having shown growth (Pseudomonas aeruginosa; [10])
(70%): Percentage of strains having shown growth (Pseudomonas aeruginosa; [11])
Tr: intensity of growth ([3]; C-390 0.5 mg/l in medium W) | intensity of growth ([6]; C-390 1 mg/l in medium W)
46: Number of strains having shown growth (Pseudomonas aeruginosa; [9])
35: Number of strains having shown growth (Pseudomonas aeruginosa; [11])
NG: intensity of growth ([1]; C-390 4 mg/l in medium W) | intensity of growth ([1]; C-390 8 mg/l in medium W) | intensity of growth ([1]; C-390 16 mg/l in medium W) | intensity of growth ([1]; C-390 32 mg/l in medium W) | intensity of growth ([2]; C-390 0.5 mg/l in medium W) | intensity of growth ([2]; C-390 1 mg/l in medium W) | intensity of growth ([2]; C-390 2 mg/l in medium W) | intensity of growth ([2]; C-390 4 mg/l in medium W) | intensity of growth ([2]; C-390 8 mg/l in medium W) | intensity of growth ([2]; C-390 16 mg/l in medium W) | intensity of growth ([2]; C-390 32 mg/l in medium W) | intensity of growth ([3]; C-390 1 mg/l in medium W) | intensity of growth ([3]; C-390 2 mg/l in medium W) | intensity of growth ([3]; C-390 4 mg/l in medium W) | intensity of growth ([3]; C-390 8 mg/l in medium W) | intensity of growth ([3]; C-390 16 mg/l in medium W) | intensity of growth ([3]; C-390 32 mg/l in medium W) | intensity of growth ([4]; C-390 4 mg/l in medium W) | intensity of growth ([4]; C-390 8 mg/l in medium W) | intensity of growth ([4]; C-390 16 mg/l in medium W) | intensity of growth ([4]; C-390 32 mg/l in medium W) | intensity of growth ([5]; C-390 1 mg/l in medium W) | intensity of growth ([5]; C-390 2 mg/l in medium W) | intensity of growth ([5]; C-390 4 mg/l in medium W) | intensity of growth ([5]; C-390 8 mg/l in medium W) | intensity of growth ([5]; C-390 16 mg/l in medium W) | intensity of growth ([5]; C-390 32 mg/l in medium W) | intensity of growth ([6]; C-390 2 mg/l in medium W) | intensity of growth ([6]; C-390 4 mg/l in medium W) | intensity of growth ([6]; C-390 8 mg/l in medium W) | intensity of growth ([6]; C-390 16 mg/l in medium W) | intensity of growth ([6]; C-390 32 mg/l in medium W) | intensity of growth ([7]; C-390 0.5 mg/l in medium W) | intensity of growth ([7]; C-390 1 mg/l in medium W) | intensity of growth ([7]; C-390 2 mg/l in medium W) | intensity of growth ([7]; C-390 4 mg/l in medium W) | intensity of growth ([7]; C-390 8 mg/l in medium W) | intensity of growth ([7]; C-390 16 mg/l in medium W) | intensity of growth ([7]; C-390 32 mg/l in medium W) | intensity of growth ([8]; C-390 2 mg/l in medium W) | intensity of growth ([8]; C-390 4 mg/l in medium W) | intensity of growth ([8]; C-390 8 mg/l in medium W) | intensity of growth ([8]; C-390 16 mg/l in medium W) | intensity of growth ([8]; C-390 32 mg/l in medium W) | intensity of growth (Fusarium oxysporum (ENV); C-390 8 mg/l in medium W) | intensity of growth (Fusarium oxysporum (ENV); C-390 16 mg/l in medium W) | intensity of growth (Fusarium oxysporum (ENV); C-390 32 mg/l in medium W)
